The subject of experiment [1] is 51Cr-labeled T lymphocyte migration into the spleen. The experiment is described as follows: Inhibition of lymphocyte migration into lymphoid tissue (spleen) in vivo. On the set-up: species or system Balb/c mice. The settings on record: 5 mg per mouse iv with labeled cells; spleens removed 1.5 hours after injection; vs negative controls. The protocol:
Lymphocytes were obtained from spleens of 6-8 week old female specific pathogen-free Balb/c mice (19-21 g). Single cell suspensions prepared by conventional means (pushing through a stainless steel screen). Red blood cells were lysed by treating with a solution of bicarbonate buffered ammonium chloride-EDTA (pH 7.3) and the preparation strained through a Falcon 2350 cell strainer. All cell preparative steps were performed on ice. Cell were suspended in a conventional lymphocyte culture medium (DMEM plus glucose, folic acid, L-asparagine, sodium bicarbonate, L-glutamine, sodium pyruvate, HEPES, 2-mercaptoethanol, penicillin, streptomycin, neomycin, and 2% FCS).
B lymphocytes were depleted by suspending the cells in purified rat anti-mouse CD45/B220 antibody (RA3-6B2 clone; PharMingen, USA) at a concentration of 4×10^7 cells/ml and incubated on ice for 20 minutes. An equal volume of culture medium (as above) was added and the cells centrifuged (200×g) and resuspended at a concentration of 10^7 cells/ml in BioMag goat ant-rat IgG (H&L) (“GARIG”) conjugated to magnetic beads (Bio Mag; Perseptive Diagnostics, Polysciences, Inc., USA). Following a 20 minute incubation on ice, with agitation every 5 minutes, cells binding to the GARIG/anti-CD45/B220 antibody complex were removed using magnetic separation (Dynal MPC-6, Dynal, USA). This procedure was repeated 4 times, resulting in a cell population containing approximately 80-90% T lymphocytes (determined by FACS analysis).
The cells were then washed in Hanks balanced salt solution (HBSS), resuspended in 5 ml of HBSS, and radiolabeled with ^51Cr for 30 minutes at 37° C. (as described above). The labeled cells were washed in PBS, centrifuged (200×g), and a portion were resuspended at a concentration of 3×10^7 cells/ml in either PBS (negative control) or PBS containing phenyl mannoside 6-phosphate (25 mg/ml in PBS; positive control) or PBS containing the test compound (25 mg/ml), and stored on ice. Cell viability was confirmed throughout the procedures by trypan blue exclusion. Balb/c mice were injected intravenously (iv) into the lateral tail vein with 0.2 ml containing 6×10^6 labeled lymphocytes and 0.2 ml of either PBS (negative control), 5 mg positive control or 5 mg test compound. All groups of mice were weight matched (±0.5 g).
Spleens from recipient mice were removed 1.5 hours after injection, and the cell-associated radioactivity was determined using a gamma counter (as above). Results of inhibition of lymphocyte migration into the spleen were expressed as a percentage reduction in the CPM of the spleens from treated animals compared with negative controls.
The phosphono-mannoside compounds of the present invention and their relative inhibition of lymphocyte migration in vivo (compared to negative controls) are presented in Table 2.

The subject of experiment [2] is MBP-specific T lymphocyte cell lines migrating across rat brain endothelial cell monolayer. The experiment is described as follows: Inhibition of T-lymphocyte migration across rat brain endothelial cell layer (Transwell, 51Cr-labeled cells). The settings on record: Rattus norvegicus, T-cell; 10 mM in upper well; 6 hours; compared with negative control; read-out: % inhibition (±SEM) of T cell migration. In kind it is cell-based, Lewis rats. The method, then: Preparation of Brain Endothelial Cells (ECs)
Vascular ECs were isolated from rat brain capillaries of 6 to 8 week old Lewis rats according to the method of Risau, W et al., 1990, J. Cell Biol. 110:1757-1766 (which is incorporated herein by reference). Colonies of ECs were purified from astroglial cells and pericytes using anti-Thy1.1-antibody and complement-mediated lysis to remove unwanted Thy1.1+ cells.
The EC colonies were grown, using conventional methods, in Dulbecco's Modified Eagle's Medium (DMEM)-high glucose, supplemented, with 20% fetal calf serum (FCS), glutamine, pyruvate, nonessential amino acids, HEPES buffer and antibiotics (kanamycin, amphotericin), and heparin (all from GIBCO). Cultures were supplemented with 150 μg/ml “endothelial growth supplement” from Collaborative Biomedical Products. Upon reaching confluence, EC cultures were washed with 0.2% EDTA in phosphate buffered saline (PBS), trypsinized (Trypsin-EDTA, 0.1% final concentration), washed and re-treated with anti-Thy1.1 antibody for 40 min, washed and incubated with complement sufficient to lyse all Thy1.1+ cells (Behringwerke, AG, Marburg, Germany) at room temperature.
ECs were then plated on Matrigel®-coated 6.5 mm Transwells, […] (Corning Costar Corporation, Cambridge, Mass.). Presence of ECs and confluence of the monolayer were checked by measuring the electrical resistance (World Precision Instruments, New Haven, U.S.A., model EVOM-G) and by staining with FITC-labeled phalloidin (Sigma).
Myelin Basic Protein (MBP)-Specific T Cell Lines
To study the effect of agents of the present invention on T lymphocyte migration, MBP-specific T lymphocyte cell lines were generated according to the method of Ben-Nun et al., Europ. J. Immunol. 11:195-199 (1981); incorporated herein by reference) starting with lymphocytes from the LNs of Lewis rats that had been immunized with MBP in complete Freund's adjuvant (CFA). These cells were used for migration studies during the first 4 days of their propagation in IL-2-containing medium, following MBP restimulation in the presence of antigen-presenting cells (irradiated spleen or thymus cells from normal Lewis rats).
These stimulated T lymphocytes were radiolabeled with ^51Cr (Na^51Cr04, 37 MBq/ml, Amersham, UK) for 30 minutes at 37° C. with occasional agitation, they were then washed three times with DMEM and placed into the upper chamber of the Transwells at 5×10^5 cells in 100 μl of “migration medium.” Test and control substance were included in the upper wells at final concentrations of 0.1, 1 and 10 mM. Cell migration was assessed visually by light microscopy to gauge progress of the experiment. The experiment was terminated after 6 hours, whereupon the undersurface of the membrane filters were rinsed twice with 100 μl of ice-cold PBS-0.2% EDTA and combined with the medium of the lower chamber of the well. The combined material was counted for radioactivity in a gamma counter (Packard Auto-Gamma 5650 (Downer's Grove Ill., USA) gamma counter. Each “treatment” group was run in triplicate (test agent, control agent (glucose 6-phosphate) and no treatment).
Inhibition values are in comparison with the negative control.

SMILES strings stand for the structures.

`Cc1ccc(O[C@H]2O[C@H](CCP(=O)(O)O)[C@@H](O)[C@H](O)[C@@H]2O)c(C)c1`: the “% Inhibition of lymphocyte migration into spleens” value in experiment [1] worked out at 82.4%. Also, the inhibition at 10000 µM in experiment [2] came to 90 ± 4%.

Values taken from US7648966B2, “Mannose-6-phosphonate compounds for the treatment of inflammatory diseases” (Pharmaxis Pty Limited, priority 2003, dated 2010).
